Reference: US7045343B2, “Sterilization indicator test packs” (3M Innovative Properties Company, priority 1998, dated 2006)

System: enzyme associated with Bacillus stearothermophilus spores
Test: Rapid enzyme fluorescence readout of dual rapid readout indicators after prevacuum steam sterilization
Type: biochemical
Conditions: 4-pulse prevacuum steam 121° C.
Outline: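 This is a rapid enzyme test in which spore-associated enzyme activity is detected by fluorescence. Spores coated with chemicals were dried on 5×25 mm paper strips for 16 hours at 37° C. They were loaded into indicators that carried 4-methylumbelliferyl-alpha-D-glucoside substrate, with untreated spores serving as controls. After 4-pulse prevacuum steam exposure at 121° C, with vacuum at 0.075–0.085 bar, the substrate ampoules were crushed and the indicators were incubated at 60° C and read with an autoreader.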

[1] = Example 4, 50 mg/ml coating, 7–18 min
[2] = Example 4, 100 mg/ml coating, 7–18 min
[3] = Example 1, 10 mg/ml coating, 7–13 min
[4] = Example 1, 20 mg/ml coating, 7–13 min
[5] = Example 1, 40 mg/ml coating, 7–13 min
[6] = Example 1, 80 mg/ml coating, 7–13 min
[7] = Example 1, 100 mg/ml coating, 7–13 min
[8] = Example 3, 100 mg/ml coating, 7–15 min

Decaglyceryl Decaoleate
FLUORESCENCE - PERCENT POSITIVE 1 HR [1]: 0%
FLUORESCENCE - PERCENT POSITIVE 2 HR [1]: 19.4%
FLUORESCENCE - PERCENT POSITIVE 3 HR [1]: 29.0%
FLUORESCENCE - PERCENT POSITIVE 4 HR [1]: 41.9%
FLUORESCENCE - PERCENT POSITIVE 1 HR [2]: 16.7%
FLUORESCENCE - PERCENT POSITIVE 2 HR [2]: 20%
FLUORESCENCE - PERCENT POSITIVE 3 HR [2]: 30%
FLUORESCENCE - PERCENT POSITIVE 4 HR [2]: 50%

Decaglyceryl Monostearate
accuracy of sterilization indicators compared to indicators made with untreated spores: improved
accuracy of sterilization indicators compared to indicators made with untreated spores (listed as decaglycerol monostearate): improved accuracy
FLUORESCENCE - PERCENT POSITIVE 1 HR [3]: 0%
FLUORESCENCE - PERCENT POSITIVE 2 HR [3]: 41.0%
FLUORESCENCE - PERCENT POSITIVE 3 HR [3]: 74.4%
FLUORESCENCE - PERCENT POSITIVE 4 HR [3]: 82.1%
FLUORESCENCE - PERCENT POSITIVE 5 HR [3]: 87.2%
FLUORESCENCE - PERCENT POSITIVE 6 HR [3]: 89.7%
FLUORESCENCE - PERCENT POSITIVE 1 HR [4]: 0%
FLUORESCENCE - PERCENT POSITIVE 2 HR [4]: 17.6%
FLUORESCENCE - PERCENT POSITIVE 3 HR [4]: 73.5%
FLUORESCENCE - PERCENT POSITIVE 4 HR [4]: 91.2%
FLUORESCENCE - PERCENT POSITIVE 5 HR [4]: 100%
FLUORESCENCE - PERCENT POSITIVE 6 HR [4]: 100%
FLUORESCENCE - PERCENT POSITIVE 1 HR [5]: 0%
FLUORESCENCE - PERCENT POSITIVE 2 HR [5]: 69.5%
FLUORESCENCE - PERCENT POSITIVE 3 HR [5]: 91.5%
FLUORESCENCE - PERCENT POSITIVE 4 HR [5]: 100%
FLUORESCENCE - PERCENT POSITIVE 5 HR [5]: 100%
FLUORESCENCE - PERCENT POSITIVE 6 HR [5]: 100%
FLUORESCENCE - PERCENT POSITIVE 1 HR [6]: 0%
FLUORESCENCE - PERCENT POSITIVE 2 HR [6]: 85.5%
FLUORESCENCE - PERCENT POSITIVE 3 HR [6]: 96.4%
FLUORESCENCE - PERCENT POSITIVE 4 HR [6]: 100%
FLUORESCENCE - PERCENT POSITIVE 5 HR [6]: 100%
FLUORESCENCE - PERCENT POSITIVE 6 HR [6]: 100%
FLUORESCENCE - PERCENT POSITIVE 1 HR [7]: 8.8%
FLUORESCENCE - PERCENT POSITIVE 2 HR [7]: 85.3%
FLUORESCENCE - PERCENT POSITIVE 3 HR [7]: 100%
FLUORESCENCE - PERCENT POSITIVE 4 HR [7]: 100%
FLUORESCENCE - PERCENT POSITIVE 5 HR [7]: 100%
FLUORESCENCE - PERCENT POSITIVE 6 HR [7]: 100%
FLUORESCENCE - PERCENT POSITIVE 1 HR [8]: 0%
FLUORESCENCE - PERCENT POSITIVE 2 HR [8]: 100.0%
FLUORESCENCE - PERCENT POSITIVE 3 HR [8]: 100.0%
FLUORESCENCE - PERCENT POSITIVE 4 HR [8]: 100.0%
FLUORESCENCE - PERCENT POSITIVE 1 HR [1]: 13.8%
FLUORESCENCE - PERCENT POSITIVE 2 HR [1]: 86.2%
FLUORESCENCE - PERCENT POSITIVE 3 HR [1]: 100.0%
FLUORESCENCE - PERCENT POSITIVE 4 HR [1]: 100.0%
